The target of assay [1] is T1, recombinant thioredoxin reductase 1 (TrxR1) (Homo sapiens, UniProt Q16881).
T1 sequence (Q16881 1-649): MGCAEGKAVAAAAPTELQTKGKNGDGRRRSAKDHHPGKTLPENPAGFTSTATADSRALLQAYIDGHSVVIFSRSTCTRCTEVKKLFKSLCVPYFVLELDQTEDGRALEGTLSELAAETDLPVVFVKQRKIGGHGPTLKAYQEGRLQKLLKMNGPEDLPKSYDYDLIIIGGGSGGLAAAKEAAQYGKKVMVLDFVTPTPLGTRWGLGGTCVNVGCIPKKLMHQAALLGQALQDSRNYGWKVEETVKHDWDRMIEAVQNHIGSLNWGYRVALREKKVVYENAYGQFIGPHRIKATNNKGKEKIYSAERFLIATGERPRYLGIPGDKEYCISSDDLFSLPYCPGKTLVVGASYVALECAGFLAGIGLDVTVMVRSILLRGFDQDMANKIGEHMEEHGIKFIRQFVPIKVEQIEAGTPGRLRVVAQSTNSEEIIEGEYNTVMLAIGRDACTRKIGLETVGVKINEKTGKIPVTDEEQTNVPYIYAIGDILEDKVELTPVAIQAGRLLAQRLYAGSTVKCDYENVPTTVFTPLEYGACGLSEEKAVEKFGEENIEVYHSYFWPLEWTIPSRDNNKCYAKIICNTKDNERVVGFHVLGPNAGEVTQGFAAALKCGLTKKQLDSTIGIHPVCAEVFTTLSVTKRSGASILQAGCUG
In words: Inhibition of recombinant TrxR1 (DTNB assay). The assay is classed as biochemical. Here is the method:
(§1) Small molecule inhibition of recombinant thioredoxin reductase 1 (TrxR1) and gluthathione reductase (GR) was examined in 96-well plate format. 15 nM TrxR1 was incubated in the presence of 250 μM NADPH, 0.1 mg/ml BSA, and various concentrations of the compound of Example 1 (1% DMSO final) in 50 mM Tris (pH 7.5) and 2 mM EDTA buffer for 15 minutes. Following the incubation period, 2.5 mM DTNB was added to each well and the change in O.D. at 412 nm was followed. Percent activity was determined using DMSO vehicle and no TrxR1 (blank) controls. 2 nM GR was incubated in the presence of 250 μM NADPH, 0.1 mg/ml BSA, and various concentrations of compounds (1% DMSO final) in 50 mM Tris (pH 7.5) and 2 mM EDTA buffer for 15 minutes. Following the incubation period, 1 mM GSSG was added to each well and the change in O.D. at 340 nm was followed. Percent activity was determined using DMSO vehicle and no GR (blank) controls.

The target of assay [2] is T2, gluthathione reductase (GR) (Homo sapiens, UniProt P00390).
T2 sequence (P00390 44-522): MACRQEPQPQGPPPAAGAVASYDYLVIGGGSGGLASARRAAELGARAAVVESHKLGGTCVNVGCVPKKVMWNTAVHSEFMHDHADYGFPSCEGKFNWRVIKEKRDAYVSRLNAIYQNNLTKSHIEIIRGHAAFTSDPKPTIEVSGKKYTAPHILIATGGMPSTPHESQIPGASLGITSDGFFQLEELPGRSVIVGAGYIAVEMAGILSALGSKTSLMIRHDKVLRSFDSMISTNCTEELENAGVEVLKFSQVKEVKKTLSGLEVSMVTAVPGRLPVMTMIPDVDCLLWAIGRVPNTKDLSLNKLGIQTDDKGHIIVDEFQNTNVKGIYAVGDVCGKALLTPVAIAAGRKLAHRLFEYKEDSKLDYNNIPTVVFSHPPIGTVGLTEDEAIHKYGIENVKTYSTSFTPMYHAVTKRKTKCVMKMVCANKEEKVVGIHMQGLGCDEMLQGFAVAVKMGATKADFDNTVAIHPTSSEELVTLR
In words: Inhibition of recombinant GR (GSSG assay). The format is biochemical. Here is the method:
as §1

The mark [3] stands for this setting: Biological Example 4, assays of Biological Example 1, read-out: TrxR Inhibition.
[4] abbreviates: Biological Example 4, assays of Biological Example 1.

Structures can show the parent of a compound that is named as a salt. Where two headings read alike, the source gives them in different places.

Regarding `Cc1cccc(CN2[C@@H]3C(=O)C=C[C@H]2[C@@H]2C(=O)N(c4ccc(Br)cc4)C(=O)[C@@H]23)c1` (relative stereo) [Example 66, exo-4-(4-Bromophenyl)-11-(3-methylbenzyl)-4,11-diazatricyclo[5.3.1.0^2,6]-undec-9-ene-3,5,8-trione Trifluoroacetate], the IC50 is 1.43 µM in assay [1] (setting [3]) and more than 100 µM in assay [2] (setting [4]).

`CC(C)(C)N1C(=O)C2C(C1=O)[C@@H]1C=CC(=O)[C@H]2N1Cc1ccccc1` (mixture of isomers) [Example 16, endo 11-Benzyl-4-(tert-butyl)-4,11-diazatricyclo[5.3.1.0^2,6]undec-9-ene-3,5,8-trione Trifluoroacetate]: the results for the IC50 in assay [1] (setting [3]) and in assay [2] (setting [4]) were 5.56 µM and more than 100 µM, respectively.

As for `Cc1cccc(CN2[C@@H]3C(=O)C=C[C@H]2[C@@H]2C(=O)N(c4ccc(O)cc4)C(=O)[C@@H]23)c1` (relative stereo) [Example 55, exo-4-(4-Hydroxyphenyl)-11-(3-methylbenzyl)-4,11-diazatricyclo[5.3.1.0^2,6]-undec-9-ene-3,5,8-trione Trifluoroacetate], the values for the IC50 in assay [1] (setting [3]) and in assay [2] (setting [4]) were 1.64 µM and more than 100 µM, respectively.

For the compound `Cc1cccc(CN2[C@@H]3C(=O)C=C[C@H]2[C@@H]2C(=O)N(C)C(=O)[C@@H]23)c1` (relative stereo) [Example 53, exo-4-Methyl-11-(3-methylbenzyl)-4,11-diazatricyclo[5.3.1.0^2,6]undec-9-ene-3,5,8-trione Trifluoroacetate], the IC50 in assay [1] (setting [3]) was 3.26 µM; in assay [2] (setting [4]), more than 100 µM.

As for `O=C1C=CC2C3C(=O)N(c4ccccc4)C(=O)C3C1N2Cc1cccc(Br)c1` (stereo not drawn) [Example 34, exo-11-(3-Bromobenzyl)-4-phenyl-4,11-diazatricyclo[5.3.1.0^2,6]undec-9-ene-3,5,8-trione Trifluoroacetate], the IC50 in assay [1] (setting [3]) is 1.23 µM; in assay [2] (setting [4]) it was more than 100 µM.

With `O=C1C=C[C@H]2[C@@H]3C(=O)N(c4ccccc4)C(=O)[C@@H]3[C@@H]1N2Cc1ccc(-c2ccccc2)cc1` (relative stereo) [Example 2, exo-11-([1,1′-Biphenyl]-4-ylmethyl)-4-phenyl-4,11-diazatricyclo[5.3.1.0^2,6]-undec-9-ene-3,5,8-trione Trifluoroacetate], the IC50 in assay [1] (setting [3]) came out at 1.46 µM; in assay [2] (setting [4]) it was 65.2 µM.

Regarding `O=C1C=CC2C3C(=O)N(c4ccccc4)C(=O)C3C1N2Cc1cccc(F)c1F` (stereo not drawn) [Example 31, exo-11-(2,3-Difluorobenzyl)-4-phenyl-4,11-diazatricyclo[5.3.1.0^2,6]undec-9-ene-3,5,8-trione Trifluoroacetate], the IC50 in assay [1] (setting [3]) is 1.06 µM; in assay [2] (setting [4]), more than 100 µM.

Turning to `Cc1cccc(CN2[C@@H]3C(=O)C=C[C@H]2[C@@H]2C(=O)N(c4cccc(N5CCCCC5)c4)C(=O)[C@@H]23)c1` (relative stereo) [Example 63, exo-11-(3-Methylbenzyl)-4-(3-(piperidin-1-yl)phenyl)-4,11-diazatricyclo-[5.3.1.0^2,6]undec-9-ene-3,5,8-trione Trifluoroacetate], the IC50 in assay [1] (setting [3]) is 1.58 µM; in assay [2] (setting [4]) it was more than 100 µM.

Take `O=C1C=C[C@H]2[C@@H]3C(=O)N(Cc4ccccc4)C(=O)[C@@H]3[C@@H]1N2Cc1ccccc1` (relative stereo) [Example 11, exo-4,11-Dibenzyl-4,11-diazatricyclo[5.3.1.0^2,6]undec-9-ene-3,5,8-trione Trifluoroacetate]: the IC50 in assay [1] (setting [3]) was 0.9 µM; in assay [2] (setting [4]), more than 100 µM.

In the case of `CC(C)(C)N1C(=O)[C@@H]2[C@H](C1=O)[C@H]1C(=O)C=C[C@@H]2N1Cc1ccccc1` (relative stereo) [Example 17, exo-11-Benzyl-4-(tert-butyl)-4,11-diazatricyclo[5.3.1.0^2,6]undec-9-ene-3,5,8-trione Trifluoroacetate], the IC50 in assay [1] (setting [3]) is 1.64 µM; in assay [2] (setting [4]), more than 100 µM.

Consider `Cc1cc(CN2C3C=CC(=O)C2C2C(=O)N(c4ccccc4)C(=O)C23)ccc1F` (stereo not drawn) [Example 37, exo-11-(4-Fluoro-3-methylbenzyl)-4-phenyl-4,11-diazatricyclo[5.3.1.0^2,6]-undec-9-ene-3,5,8-trione Trifluoroacetate], for which the IC50 in assay [1] (setting [3]) was 0.93 µM; in assay [2] (setting [4]), more than 100 µM.

In the case of `O=C1C=C[C@H]2[C@@H]3C(=O)N(c4ccccc4)C(=O)[C@@H]3[C@@H]1N2Cc1ccccc1Cl` (relative stereo) [Example 24, exo-11-(2-Chlorobenzyl)-4-phenyl-4,11-diazatricyclo[5.3.1.0^2,6]undec-9-ene-3,5,8-trione Trifluoroacetate], the results for the IC50 in assay [1] (setting [3]) and in assay [2] (setting [4]) were 1.3 µM and more than 100 µM, respectively.

With `O=C1C=CC2C3C(=O)N(c4ccccc4)C(=O)C3C1N2Cc1ccc(F)cc1` (stereo not shown) [Example 8, 11-(4-Fluorobenzyl)-4-phenyl-4,11-diazatricyclo[5.3.1.0^2,6]undec-9-ene-3,5,8-trione Trifluoroacetate], the IC50 worked out at 2.03 µM in assay [1] (setting [3]) and 28.5 µM in assay [2] (setting [4]).

For the compound `CS(=O)(=O)c1cccc(CN2[C@@H]3C(=O)C=C[C@H]2[C@@H]2C(=O)N(c4ccccc4)C(=O)[C@@H]23)c1` (relative stereo) [Example 68, exo-11-(3-(Methylsulfonyl)benzyl)-4-phenyl-4,11-diazatricyclo[5.3.1.0^2,6]-undec-9-ene-3,5,8-trione Trifluoroacetate], the IC50 was 1.88 µM in assay [1] (Biological Example 1, 15 nM TrxR1, 250 μM NADPH, 15 minutes incubation, read-out: TrxR inhibition); 2.24 µM in assay [1] (setting [3]); more than 100 µM in assay [2] (Biological Example 1, 2 nM GR, 250 μM NADPH, 15 minutes incubation); more than 100 µM in assay [2] (setting [4]).

For `CC1=CC(=O)[C@@H]2[C@H]3C(=O)N(C4CCCCC4)C(=O)[C@H]3[C@H]1N2Cc1ccccc1` (relative stereo) [Example 14, exo-11-Benzyl-4-cyclohexyl-10-methyl-4,11-diazatricyclo[5.3.1.0^2,6]undec-9-ene-3,5,8-trione Trifluoroacetate], the IC50 in assay [1] (setting [3]) is 33.3 µM; in assay [2] (setting [4]), more than 100 µM.

`CCN1C(=O)C2C(C1=O)[C@@H]1C=CC(=O)[C@H]2N1Cc1cccc(C)c1` (mixture of isomers) [Example 48, endo-4-Ethyl-11-(3-methylbenzyl)-4,11-diazatricyclo[5.3.1.0^2,6]undec-9-ene-3,5,8-trione Trifluoroacetate]: the IC50 in assay [1] (setting [3]) is 3.63 µM; in assay [2] (setting [4]), more than 100 µM.

With `Cc1ccc(F)c(CN2C3C=CC(=O)C2C2C(=O)N(c4ccccc4)C(=O)C23)c1F` (stereo not drawn) [Example 39, exo-11-(2,6-Difluoro-3-methylbenzyl)-4-phenyl-4,11-diazatricyclo[5.3.1.0^2,6]-undec-9-ene-3,5,8-trione Trifluoroacetate], the IC50 in assay [1] (setting [3]) was 1.29 µM; in assay [2] (setting [4]) it was more than 100 µM.

For the compound `CS(=O)(=O)c1ccc(CN2[C@@H]3C(=O)C=C[C@H]2[C@@H]2C(=O)N(c4ccccc4)C(=O)[C@@H]23)cc1` (relative stereo) [Example 23, exo-11-(4-(Methylsulfonyl)benzyl)-4-phenyl-4,11-diazatricyclo[5.3.1.0^2,6]-undec-9-ene-3,5,8-trione Trifluoroacetate], the IC50 is 3.83 µM in assay [1] (setting [3]) and more than 100 µM in assay [2] (setting [4]).

Regarding `CC1=CC(=O)C2C3C(=O)N(c4ccccc4)C(=O)C3C1N2Cc1ccccc1` (stereo not shown) [Example 12, 9-Benzyl-7-methyl-2-phenyl-3a,4,8,8a-tetrahydro-4,8-epiminocyclohepta[c]-pyrrole-1,3,5(2H)-trione Trifluoroacetate], the results for the IC50 in assay [1] (setting [3]) and in assay [2] (setting [4]) were 1.25 µM and 41.4 µM, respectively.

Values taken from patent US10881653B2, “Tricyclic compounds and their use in the treatment of cancer” (The United States of America, as represented by the …, priority 2015, dated 2021).
